Reference: the supplement of paper PMC10307832

Compound: CN(C)C(=N)NC(=N)N [Metformin] + CCNC(=O)c1noc(-c2cc(C(C)C)c(O)cc2O)c1-c1ccc(CN2CCOCC2)cc1 [Luminespib] (partner 0.01 µM)
Experiment: relative viability (nuclei count vs DMSO), 5 days (fraction); higher = more cells survive
Details: first compound 10 µM
Method in brief: (§1)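 Cells from lung cancer lines were seeded into 1536-well plates and, one day later, dosed by pin tool. Treatments were either a single drug or a fixed dose of an anchor drug with five library-drug doses (not always all listed) in √10 steps. After 5 days, nuclei were stained in a one-step fixation (final 0.05% Triton X-100, 1% formaldehyde, 1 ug/ml Hoechst) and counted on 4× images, and relative viability is the treated-to-vehicle nuclei ratio, as the median of duplicate plates.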

Row | Cell Line | relative viability
1 | NCI-H647 | 0.187
2 | NCI-H650 | 0.953
3 | NCI-H661 | 0.844
4 | NCI-H727 | 0.566
5 | NCI-H838 | 0.258
6 | NCI-H1355 | 0.752
7 | NCI-H1395 | 0.706
8 | NCI-H1437 | 1.15
9 | NCI-H1650 | 0.189
10 | NCI-H1651 | 1.19
11 | NCI-H1666 | 1.06
12 | NCI-H1734 | 0.145
13 | NCI-H1755 | 0.504
14 | NCI-H1793 | 0.22
15 | NCI-H1944 | 0.815
16 | NCI-H1975 | 0.156
17 | NCI-H1993 | 0.994
18 | NCI-H2009 | 1.07
19 | NCI-H2023 | 0.649
20 | NCI-H2085 | 0.429
21 | NCI-H2126 | 0.647
22 | NCI-H2170 | 0.571
23 | NCI-H2228 | 0.133
24 | NCI-H2342 | 0.687

Same assay, conditions: first compound 31.62 µM

Row | Cell Line | relative viability
25 | NCI-H596 | 1.18
26 | NCI-H647 | 0.154
27 | NCI-H650 | 1.03
28 | NCI-H661 | 0.837
29 | NCI-H727 | 0.496
30 | NCI-H838 | 0.289
31 | NCI-H1355 | 0.704
32 | NCI-H1395 | 0.697
33 | NCI-H1437 | 1.16
34 | NCI-H1650 | 0.212
35 | NCI-H1651 | 1.3
36 | NCI-H1666 | 1.11
37 | NCI-H1734 | 0.2
38 | NCI-H1755 | 0.565
39 | NCI-H1915 | 0.724
40 | NCI-H1944 | 0.902
41 | NCI-H1975 | 0.122
42 | NCI-H1993 | 1.09
43 | NCI-H2009 | 1.09
44 | NCI-H2023 | 0.725
45 | NCI-H2085 | 0.441
46 | NCI-H2087 | 0.293
47 | NCI-H2126 | 0.956
48 | NCI-H2170 | 0.677
49 | NCI-H2228 | 0.185
50 | NCI-H2342 | 0.706

Same assay, conditions: first compound 100 µM

Row | Cell Line | relative viability
51 | NCI-H596 | 1.08
52 | NCI-H647 | 0.278
53 | NCI-H650 | 1.06
54 | NCI-H661 | 0.876
55 | NCI-H727 | 0.387
56 | NCI-H838 | 0.291
57 | NCI-H1355 | 0.768
58 | NCI-H1395 | 0.826
59 | NCI-H1437 | 1.19
60 | NCI-H1650 | 0.203
61 | NCI-H1651 | 1.06
62 | NCI-H1666 | 1.16
63 | NCI-H1734 | 0.206
64 | NCI-H1755 | 0.475
65 | NCI-H1793 | 0.147
66 | NCI-H1915 | 0.835
67 | NCI-H1944 | 0.895
68 | NCI-H1975 | 0.363
69 | NCI-H1993 | 0.713
70 | NCI-H2009 | 1.08
71 | NCI-H2023 | 0.711
72 | NCI-H2085 | 0.404
73 | NCI-H2087 | 0.225
74 | NCI-H2126 | 0.803
75 | NCI-H2170 | 0.766
76 | NCI-H2228 | 0.157
77 | NCI-H2342 | 0.726

Same assay, conditions: first compound 316.23 µM

Row | Cell Line | relative viability
78 | NCI-H596 | 1.02
79 | NCI-H647 | 0.16
80 | NCI-H650 | 0.92
81 | NCI-H661 | 0.807
82 | NCI-H838 | 0.237
83 | NCI-H1355 | 0.701
84 | NCI-H1395 | 0.834
85 | NCI-H1437 | 1.08
86 | NCI-H1650 | 0.218
87 | NCI-H1651 | 0.828
88 | NCI-H1666 | 1.06
89 | NCI-H1734 | 0.181
90 | NCI-H1755 | 0.419
91 | NCI-H1793 | 0.16
92 | NCI-H1915 | 0.785
93 | NCI-H1944 | 0.725
94 | NCI-H1975 | 0.335
95 | NCI-H1993 | 0.856
96 | NCI-H2009 | 1.02
97 | NCI-H2023 | 0.67
98 | NCI-H2085 | 0.336
99 | NCI-H2087 | 0.223
100 | NCI-H2126 | 0.571
101 | NCI-H2170 | 0.68
102 | NCI-H2228 | 0.165
103 | NCI-H2342 | 0.731

Same assay, conditions: first compound 1000 µM

Row | Cell Line | relative viability
104 | NCI-H596 | 1.06
105 | NCI-H647 | 0.113
106 | NCI-H650 | 1.09
107 | NCI-H661 | 0.354
108 | NCI-H727 | 0.477
109 | NCI-H838 | 0.251
110 | NCI-H1355 | 0.752
111 | NCI-H1395 | 0.773
112 | NCI-H1437 | 1.12
113 | NCI-H1650 | 0.218
114 | NCI-H1651 | 0.989
115 | NCI-H1666 | 1.16
116 | NCI-H1734 | 0.19
117 | NCI-H1755 | 0.418
118 | NCI-H1793 | 0.235
119 | NCI-H1915 | 0.795
120 | NCI-H1944 | 0.804
121 | NCI-H1975 | 0.336
122 | NCI-H1993 | 0.934
123 | NCI-H2009 | 0.93
124 | NCI-H2023 | 0.676
125 | NCI-H2085 | 0.475
126 | NCI-H2087 | 0.157
127 | NCI-H2126 | 0.496
128 | NCI-H2170 | 0.632
129 | NCI-H2228 | 0.209
130 | NCI-H2342 | 0.71

Compound: N#CC1(c2ccc(NC(=O)c3cccnc3NCc3ccncc3)cc2)CCCC1 [Apatinib] + Cc1cc(Nc2cc(N3CCN(C)CC3)nc(Sc3ccc(NC(=O)C4CC4)cc3)n2)n[nH]1 [Tozasertib] (partner 0.1 µM)
Experiment: as above
Details: first compound 0.08 µM
Method in brief: as §1

Row | Cell Line | relative viability
131 | NCI-H596 | 1.05
132 | NCI-H647 | 0.288
133 | NCI-H650 | 0.769
134 | NCI-H661 | 0.333
135 | NCI-H727 | 0.676
136 | NCI-H838 | 0.301
137 | NCI-H1355 | 0.576
138 | NCI-H1395 | 0.734
139 | NCI-H1437 | 0.453
140 | NCI-H1651 | 0.753
141 | NCI-H1666 | 0.595
142 | NCI-H1734 | 0.246
143 | NCI-H1755 | 0.64
144 | NCI-H1793 | 0.38
145 | NCI-H1915 | 0.422
146 | NCI-H1944 | 0.23
147 | NCI-H1975 | 0.864
148 | NCI-H1993 | 0.637
149 | NCI-H2009 | 0.856
150 | NCI-H2023 | 0.43
151 | NCI-H2085 | 0.844
152 | NCI-H2087 | 0.241
153 | NCI-H2126 | 0.953
154 | NCI-H2170 | 0.86
155 | NCI-H2228 | 0.268
156 | NCI-H2342 | 0.527

Same assay, conditions: first compound 0.253 µM

Row | Cell Line | relative viability
157 | NCI-H596 | 0.965
158 | NCI-H647 | 0.503
159 | NCI-H650 | 0.777
160 | NCI-H661 | 0.325
161 | NCI-H727 | 0.631
162 | NCI-H838 | 0.302
163 | NCI-H1355 | 0.611
164 | NCI-H1395 | 0.832
165 | NCI-H1437 | 0.461
166 | NCI-H1650 | 0.334
167 | NCI-H1651 | 0.756
168 | NCI-H1666 | 0.583
169 | NCI-H1734 | 0.283
170 | NCI-H1755 | 0.542
171 | NCI-H1793 | 0.369
172 | NCI-H1915 | 0.445
173 | NCI-H1944 | 0.229
174 | NCI-H1975 | 0.691
175 | NCI-H1993 | 0.619
176 | NCI-H2009 | 0.792
177 | NCI-H2023 | 0.307
178 | NCI-H2085 | 0.767
179 | NCI-H2087 | 0.223
180 | NCI-H2126 | 0.861
181 | NCI-H2170 | 0.879
182 | NCI-H2228 | 0.221
183 | NCI-H2342 | 0.492

Same assay, conditions: first compound 0.8 µM

Row | Cell Line | relative viability
184 | NCI-H596 | 0.854
185 | NCI-H647 | 0.19
186 | NCI-H650 | 0.724
187 | NCI-H661 | 0.357
188 | NCI-H727 | 0.545
189 | NCI-H838 | 0.248
190 | NCI-H1355 | 0.474
191 | NCI-H1395 | 0.722
192 | NCI-H1437 | 0.393
193 | NCI-H1650 | 0.329
194 | NCI-H1651 | 0.717
195 | NCI-H1666 | 0.501
196 | NCI-H1734 | 0.219
197 | NCI-H1755 | 0.529
198 | NCI-H1793 | 0.245
199 | NCI-H1915 | 0.43
200 | NCI-H1944 | 0.239
201 | NCI-H1975 | 0.253
202 | NCI-H1993 | 0.605
203 | NCI-H2009 | 0.687
204 | NCI-H2023 | 0.195
205 | NCI-H2085 | 0.726
206 | NCI-H2087 | 0.215
207 | NCI-H2126 | 0.797
208 | NCI-H2170 | 0.677
209 | NCI-H2228 | 0.225
210 | NCI-H2342 | 0.53

Same assay, conditions: first compound 2.53 µM

Row | Cell Line | relative viability
211 | NCI-H596 | 0.705
212 | NCI-H647 | 0.144
213 | NCI-H650 | 0.644
214 | NCI-H661 | 0.388
215 | NCI-H727 | 0.559
216 | NCI-H838 | 0.222
217 | NCI-H1355 | 0.33
218 | NCI-H1395 | 0.661
219 | NCI-H1437 | 0.333
220 | NCI-H1650 | 0.257
221 | NCI-H1651 | 0.34
222 | NCI-H1666 | 0.615
223 | NCI-H1734 | 0.231
224 | NCI-H1755 | 0.506
225 | NCI-H1793 | 0.209
226 | NCI-H1915 | 0.35
227 | NCI-H1944 | 0.238
228 | NCI-H1975 | 0.157
229 | NCI-H1993 | 0.583
230 | NCI-H2009 | 0.58
231 | NCI-H2023 | 0.162
232 | NCI-H2085 | 0.379
233 | NCI-H2087 | 0.179
234 | NCI-H2126 | 0.709
235 | NCI-H2170 | 0.652
236 | NCI-H2228 | 0.164
237 | NCI-H2342 | 0.455

Same assay, conditions: first compound 8 µM

Row | Cell Line | relative viability
238 | NCI-H596 | 0.631
239 | NCI-H647 | 0.206
240 | NCI-H650 | 0.486
241 | NCI-H661 | 0.392
242 | NCI-H727 | 0.488
243 | NCI-H838 | 0.213
244 | NCI-H1355 | 0.217
245 | NCI-H1395 | 0.52
246 | NCI-H1437 | 0.281
247 | NCI-H1650 | 0.26
248 | NCI-H1651 | 0.362
249 | NCI-H1666 | 0.526
250 | NCI-H1734 | 0.231
251 | NCI-H1755 | 0.447
252 | NCI-H1793 | 0.226
253 | NCI-H1915 | 0.267
254 | NCI-H1944 | 0.223
255 | NCI-H1975 | 0.157
256 | NCI-H1993 | 0.595
257 | NCI-H2009 | 0.38
258 | NCI-H2023 | 0.135
259 | NCI-H2085 | 0.406
260 | NCI-H2087 | 0.143
261 | NCI-H2126 | 0.607
262 | NCI-H2170 | 0.51
263 | NCI-H2228 | 0.0952
264 | NCI-H2342 | 0.373
